# According to patent US10562891B2, “Quinazolinones as PARP14 inhibitors” (Ribon Therapeutics Inc., priority 2017, dated 2020):
# What was measured:
# [1] = target: catalytic domain of human PARP14 (Homo sapiens (Human), UniProt Q460N5); assay: Enzymatic assay for inhibition of PARP14 (DELFIA, auto-modification with biotin-NAD); type: biochemical; settings: auto-modification of PARP14 by biotin-NAD, 50 nM PARP14, 3 μM biotin-NAD
# In short: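 His-TEV-tagged PARP14 catalytic domain (50 nM) preincubated with compound 30 min at 25 °C, then auto-modified with 3 μM biotin-NAD for 3 h at 25 °C in HEPES pH 8 buffer with DTT. IC50 from 4-parameter fit, rucaparib and DMSO as controls.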
# [2] = test system: 4T1 cells; assay: Inhibition of tumor growth in the 4T1 murine syngeneic model; type: in vivo, female BALB/c mice; settings: 4T1 orthotopic in mammary fat pad, 500 mg/kg PO BID*21 days, treatment group versus vehicle group, study terminated D20
# Description: FIGS. 3A and 4A illustrate that a PARP14 inhibitor (Example 235) reduces tumor growth in the murine syngeneic models (A) 4T1 and (B) LL/2. For the 4T1 study (FIGS. 3A and 3B), female BALB/c mice were inoculated orthotopically in the mammary fat pad with 1×10^5 4T1 cells (ATCC, CRL-2539™) for tumor development. Seven days after tumor inoculation, 16 mice with tumor size ranging from 41-78 mm^3 (average tumor size 56 mm^3) were selected and assigned into 2 groups using stratified randomization with 8 mice in each group based upon their tumor volumes. The treatments were started from the next day post randomization (defined as randomization day DO) and were treated with vehicle (0.5% methylcellulose +0.2% Tween 80), or the compound of Example 235 (500 mg/kg PO BID*21 days). The tumor sizes were measured three times per week during the treatment. The entire study was terminated on D20.
# (§1) Statistical significance, calculated using 2way ANOVA multiple comparisons in which each treatment group was compared to vehicle control, is indicated by an asterisk. Statistics were performed on groups with less than 20% animal loss (D20 for 4T1, D17 for LL/2). Survival benefit was determined for the LL/2 study (FIG. 4B). Individual mice were euthanized once they reached the termination endpoint (TV>2000 mm3). […]
# [3] = test system: LL/2 cells; assay: Inhibition of tumor growth and survival in the LL/2 murine syngeneic model; type: in vivo, female C57BL/6 mice; settings: LL/2 subcutaneous right flank, 500 mg/kg PO BID*21 days, treatment group versus vehicle group, study terminated D21
# Description: For the LL/2 study (FIGS. 4A-4C), female C57BL/6 mice were inoculated subcutaneously in the right flank with 5×10^5 LL/2 cells (ATCC, CRL-1642™) for tumor development. Five days after tumor inoculation, 16 mice with tumor size ranging from 37-72 mm^3 (average tumor size 51 mm^3) were selected and assigned into 2 groups using stratified randomization with 8 mice in each group based upon their tumor volumes. The treatments were started from the next day post randomization (defined as randomization day DO) and were treated with vehicle (0.5% methylcellulose +0.2% Tween 80), or the compound of Example 235 (500 mg/kg PO BID*21 days). The tumor sizes were measured three times per week during the treatment. The entire study was terminated on D21.
# as §1, with “mm3). The time from treatment initiation to termination was deemed as its survival time and plotted in a Kaplan-Meier survival curve format. Mice remaining at study end date of 21 days were euthanized at day 21 after treatment initiation.” for “mm3).”
# Chain of catalytic domain of human PARP14 (Q460N5 1611-1801): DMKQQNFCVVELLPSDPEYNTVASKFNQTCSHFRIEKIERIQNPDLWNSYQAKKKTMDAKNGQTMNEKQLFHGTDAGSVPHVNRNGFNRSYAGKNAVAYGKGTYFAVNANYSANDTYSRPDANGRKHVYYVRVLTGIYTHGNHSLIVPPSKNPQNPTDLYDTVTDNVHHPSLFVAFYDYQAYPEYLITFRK
compound,measurement,setting,value
"O=c1[nH]c(CS[C@H]2CC[C@H](O)CC2)nc2cc(OCC3CC3)cc(F)c12 [Example 235, 7-(Cyclopropylmethoxy)-5-fluoro-2-(((trans-4-hydroxycyclohexyl)thio)methyl)quinazolin-4(3H)-one]",IC50,[1],< 1 µM
same,Tumor growth inhibition,[2],31%
same,Tumor growth inhibition,[3],63%
